The values that follow come from patent publication US8987284B2, “Phosphorus containing quinazoline compounds and methods of use” (Newgen Therapeutics, Inc., priority 2009, dated 2015).

T1 sequence (P00533 25-1210): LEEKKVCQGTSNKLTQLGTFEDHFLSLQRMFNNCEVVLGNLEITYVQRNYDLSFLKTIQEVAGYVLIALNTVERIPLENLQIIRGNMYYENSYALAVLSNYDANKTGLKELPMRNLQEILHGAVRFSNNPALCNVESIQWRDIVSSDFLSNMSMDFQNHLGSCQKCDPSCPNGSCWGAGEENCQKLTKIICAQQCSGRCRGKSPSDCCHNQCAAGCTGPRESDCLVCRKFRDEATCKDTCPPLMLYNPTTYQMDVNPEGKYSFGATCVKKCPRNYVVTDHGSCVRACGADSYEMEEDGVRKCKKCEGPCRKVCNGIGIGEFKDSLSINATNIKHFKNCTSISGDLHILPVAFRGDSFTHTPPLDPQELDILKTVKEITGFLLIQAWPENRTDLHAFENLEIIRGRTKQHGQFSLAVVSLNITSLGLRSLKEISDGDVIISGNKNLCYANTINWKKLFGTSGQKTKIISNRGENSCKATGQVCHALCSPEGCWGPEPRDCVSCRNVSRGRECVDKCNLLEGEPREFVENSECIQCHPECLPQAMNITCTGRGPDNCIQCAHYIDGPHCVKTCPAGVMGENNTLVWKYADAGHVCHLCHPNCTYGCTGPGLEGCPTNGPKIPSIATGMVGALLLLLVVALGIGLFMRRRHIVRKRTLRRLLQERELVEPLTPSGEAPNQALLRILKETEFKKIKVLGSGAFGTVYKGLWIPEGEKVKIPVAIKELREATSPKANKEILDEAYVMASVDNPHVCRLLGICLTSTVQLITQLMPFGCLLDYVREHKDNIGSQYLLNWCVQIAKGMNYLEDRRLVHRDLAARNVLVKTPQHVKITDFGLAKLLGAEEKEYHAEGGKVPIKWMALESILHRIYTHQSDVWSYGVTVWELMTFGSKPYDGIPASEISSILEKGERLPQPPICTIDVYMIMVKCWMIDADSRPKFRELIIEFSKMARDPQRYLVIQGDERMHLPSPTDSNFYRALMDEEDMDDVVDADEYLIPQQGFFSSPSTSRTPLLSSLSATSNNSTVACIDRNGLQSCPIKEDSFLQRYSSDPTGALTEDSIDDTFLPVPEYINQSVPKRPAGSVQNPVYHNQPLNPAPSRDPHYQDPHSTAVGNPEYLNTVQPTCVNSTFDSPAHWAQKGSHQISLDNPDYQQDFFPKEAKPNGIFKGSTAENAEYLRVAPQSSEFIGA

This experiment has as its target T1, EGFR kinase (Homo sapiens, UniProt P00533).
T1 construct: purchased Invitrogen PV3872
Kind of experiment: Kinase assay for EGFR (TR-FRET LanthaScreen). Type of experiment: biochemical. Particulars: % inhibition at 100 nM or IC50 (nM). The procedure: The extent to which the compounds of the present invention modulate EGFR kinase activity can be determined using time-resolved Fret (TR-FRET) assay (LanthaScreen® kinase activity assay, from Invitrogen). The assay employs EGFR kinase (PV3872, Invitrogen), Tb-Py20 antibody (PV3552, Invitrogen) and fluorescein-poly GT (PV3610, In vitrogen)
The assay is performed in a Black 384-well plate (available from Corning). EGFR kinase (is diluted in TR-FRET Dilution Buffer (PV3189, InVitrogen) at concentration of 0.4 ug/ml as stock solution, and then 2-fold serial diluted. Addition of 1 mM ATP initiated the reaction, and the reaction is incubated for 1 h reaction at room temperature. 10 μL of the Tb-antibody (from Invitrogen)+EDTA (from Invitrogen) solution prepared was added to each well of the assay plate and mix briefly, and incubated for 30 min. The signal is monitored by using M5 microplate reader (Ex=332 nm, Em=488 nm and 518 nm). Each compound is tested in duplicate wells. EGFR without compound is used as control. Staurosporine (available from Sigma) is used as positive control compound. Inhibition was calculated as percentage of the EGFR activity (without compound)
(In TR-FRET formats the signal depends on donor and acceptor labels being close together.)
With `CP1(=O)CCN(Cc2ccc(-c3ccc4ncnc(Nc5ccc(OCc6cnccn6)c(Cl)c5)c4c3)o2)CC1` [Example 22, N-(3-chloro-4-(pyrazin-2-ylmethoxy)phenyl)-6-(5-((4-methyl-1,4-azaphosphino-1-yl)methyl)furan-2-yl)quinazolin-4-amine], the “EGFR inhibition inhibit % at 100 nM or IC50 (nM)” value (“EGFR inhibition inhibit %” below) is listed as “++ (>50% inhibition at 100 nM, or IC50 <100 nM for EGFR or ErbB2 kinases)”.
The value for `C[C@@H](Nc1ncnc2ccc(-c3ccc(CN4CCP(C)(=O)CC4)o3)cc12)c1ccccc1` [Example 18, (R)-6-(5-((4-methyl-1,4-azaphosphino-1-yl)methyl)furan-2-yl)-N-(1-phenylethyl)quinazolin-4-amine] was “++ (>50% inhibition at 100 nM, or IC50 <100 nM for EGFR or ErbB2 kinases)”; that for `CP1(=O)CCN(Cc2ccc(-c3ccc4ncnc(Nc5ccc(OCc6cccc(F)c6)c(Br)c5)c4c3)o2)CC1` [Example 14, N-(4-(3-fluorobenzyloxy)-3-bromophenyl)-6-(5-((4-methyl-1,4-azaphosphino-1-yl)methyl)furan-2-yl)quinazolin-4-amine] was “++ (>50% inhibition at 100 nM, or IC50 <100 nM for EGFR or ErbB2 kinases)”; that for `CP1(=O)CCN(C/C=C/c2ccc3ncnc(Nc4ccc(OCc5cccc(F)c5)c(Cl)c4)c3c2)CC1` [Example 11, N-(4-(3-fluorobenzyloxy)-3-chlorophenyl)-6-((E)-3-(4-methyl-1,4-azaphosphino-1-yl)prop-1-enyl)quinazolin-4-amine] was “++ (>50% inhibition at 100 nM, or IC50 <100 nM for EGFR or ErbB2 kinases)”.
With `CP1(=O)CCN(CCCc2ccc3ncnc(Nc4ccc(OCc5cccc(F)c5)c(Cl)c4)c3c2)CC1` [Example 5, N-(3-chloro-4-(3-fluorobenzyloxy)phenyl)-6-(3-(4-methyl-1,4-azaphosphino-1-yl)propyl)quinazolin-4-amine], the “EGFR inhibition inhibit %” value is recorded as “++ (>50% inhibition at 100 nM, or IC50 <100 nM for EGFR or ErbB2 kinases)”.
Consider `CP1(=O)CCN(Cc2ccc(-c3ccc4ncnc(Nc5cccc(Cl)c5F)c4c3)o2)CC1` [Example 19, N-(3-chloro-2-fluorophenyl)-6-(5-((4-methyl-1,4-azaphosphino-1-yl)methyl)furan-2-yl)quinazolin-4-amine], for which the “EGFR inhibition inhibit %” value is listed as “++ (>50% inhibition at 100 nM, or IC50 <100 nM for EGFR or ErbB2 kinases)”.
To `CP1(=O)CCN(Cc2ccc(-c3ccc4ncnc(Nc5ccc(Br)c(Cl)c5F)c4c3)o2)CC1` [Example 21, N-(4-Bromo-3-chloro-2-fluorophenyl)-6-(5-((4-methyl-1,4-azaphosphino-1-yl)methyl)furan-2-yl)quinazolin-4-amine] belongs “++ (>50% inhibition at 100 nM, or IC50 <100 nM for EGFR or ErbB2 kinases)”.
To `CP(C)(=O)CCNCC#Cc1ccc2ncnc(Nc3ccc(OCc4cccc(F)c4)c(Cl)c3)c2c1` [Example 10, 6-(3-(2-(dimethylphosphinoyl)ethylamino)prop-1-ynyl)-N-(4-(3-fluorobenzyloxy)-3-chlorophenyl)quinazolin-4-amine] belongs “++ (>50% inhibition at 100 nM, or IC50 <100 nM for EGFR or ErbB2 kinases)”; to `Cc1ccc(Oc2ccc(Nc3ncnc4ccc(-c5ccc(CN6CCP(C)(=O)CC6)o5)cc34)cc2C)cn1` [Example 12], “++ (>50% inhibition at 100 nM, or IC50 <100 nM for EGFR or ErbB2 kinases)”.
In the case of `CP1(=O)CCN(Cc2ccc(-c3ccc4ncnc(Nc5ccc6c(cnn6Cc6cccc(F)c6)c5)c4c3)o2)CC1` [Example 16, N-(1-(3-fluorobenzyl)-1H-indazol-5-yl)-6-(5-((4-methyl-1,4-azaphosphino-1-yl)methyl)furan-2-yl)quinazolin-4-amine], the “EGFR inhibition inhibit %” value was “++ (>50% inhibition at 100 nM, or IC50 <100 nM for EGFR or ErbB2 kinases)”.
